Results published in ChEMBL document CHEMBL4616615, “Screening for tyrosinase inhibitors from actinomycetes; identification of trichostatin derivatives from Streptomyces sp. CA-129531 and scale up production in bioreactor” (Bioorg Med Chem Lett, 2020).

Experiments:
Mushroom tyrosinase [1] = molecular target: T1, Mushroom tyrosinase (Agaricus bisporus, UniProt O42713+Q00024+C7FF04+C7FF05); test: Inhibition of mushroom tyrosinase using L-DOPA as substrate
A2058 = test: Cytotoxicity against human A2058 cells assessed as reduction in cell viability; type: cell-based
HepG2 = test: cells; conditions: Homo sapiens
Description: Cytotoxicity against human HepG2 cells assessed as reduction in cell viability

A549 = test: cells; conditions: Homo sapiens
Description: Cytotoxicity against human A549 cells assessed as reduction in cell viability

MCF7 = test: cells; conditions: Homo sapiens
MIA PaCa-2 = test: cells; conditions: Homo sapiens
Description: Cytotoxicity against human MIAPaCa2 cells assessed as reduction in cell viability

Mushroom tyrosinase [2] = molecular target: T1, Mushroom tyrosinase; test: Mixed-type of inhibition of mushroom tyrosinase using varying level of L-DOPA as substrate by Dixon plot analysis

With `CC(/C=C/C(N)=O)=C\[C@@H](C)C(=O)c1ccc(N(C)C)cc1` the IC50 (Mushroom tyrosinase [1]) was 19.18 µM, the IC50 (A2058) was 0.64 µM and the IC50 (HepG2) was 3.19 µM. It also gave an IC50 (A549) of 8.3 µM, an IC50 (MCF7) of 2.74 µM and an IC50 (MIA PaCa-2) of 9.46 µM.
`CNC(=O)/C=C/C(C)=C/[C@@H](C)C(=O)c1ccc(N(C)C)cc1` was tested, and the IC50 (Mushroom tyrosinase [1]) was 161.18 µM, the IC50 (A2058) was > 50 µM and the IC50 (HepG2) was 13.1 µM. The IC50 (A549) was > 50 µM, the IC50 (MCF7) was 18.4 µM and the IC50 (MIA PaCa-2) was 36.7 µM.
For `CC(/C=C/C(=O)NO[C@@H]1O[C@H](CO)[C@@H](O)[C@H](O)[C@H]1O)=C\[C@@H](C)C(=O)c1ccc(N(C)C)cc1`, the IC50 (Mushroom tyrosinase [1]) was 174.33 µM, the IC50 (A2058) was 37.3 µM and the IC50 (HepG2) was 17.8 µM. It also gave an IC50 (A549) of 25 µM, an IC50 (MCF7) of 18.9 µM and an IC50 (MIA PaCa-2) of 37.9 µM.
With `CC(/C=C/C(=O)O)=C\[C@@](C)(O)C(=O)c1ccc(N(C)C)cc1` the IC50 (A2058) was > 50 µM, the IC50 (HepG2) was > 50 µM and the IC50 (A549) was > 50 µM. The IC50 (MCF7) was > 50 µM and the IC50 (MIA PaCa-2) was > 50 µM.
In the case of `CC(/C=C/C(=O)O)=C\[C@H](C)C(=O)c1ccc(N(C)C)cc1`, the IC50 (A2058) is reported as > 50 µM, the IC50 (HepG2) is reported as > 50 µM and the IC50 (A549) is reported as > 50 µM. The IC50 (MCF7) was > 50 µM and the IC50 (MIA PaCa-2) was > 50 µM.
`CC(/C=C/C(=O)N[C@@H](CCC(N)=O)C(=O)O)=C\[C@@H](C)C(=O)c1ccc(N(C)C)cc1` was tested, and the IC50 (A2058) was > 50 µM, the IC50 (HepG2) was > 50 µM and the IC50 (A549) was > 50 µM. The IC50 (MCF7) was > 50 µM and the IC50 (MIA PaCa-2) was > 50 µM.
With `COc1cccc2c1C(=O)c1c(O)c3c(c(O)c1C2=O)C[C@@](O)(C(=O)CO)C[C@@H]3O[C@H]1C[C@H](N)[C@H](O)[C@H](C)O1` [DOXORUBICIN] the IC50 (A2058) was < 0.11 µM, the IC50 (HepG2) was < 0.11 µM and the IC50 (A549) was 3.76 µM. It also gave an IC50 (MIA PaCa-2) of 1.02 µM.
Compound `CC(/C=C/C(=O)NO)=C\[C@@H](C)C(=O)c1ccc(N(C)C)cc1` [TRICHOSTATIN] has an IC50 (Mushroom tyrosinase [1]) of 2.18 µM, an IC50 (A2058) of 0.43 µM and a Ki (Mushroom tyrosinase [2]) of 6.1 µM. It also gave an IC50 (HepG2) of 0.38 µM, an IC50 (A549) of 1.31 µM and an IC50 (MCF7) of 0.3 µM. For the same compound, the IC50 (MIA PaCa-2) was 0.9 µM.
